The values that follow are results of earlier work, collected in patent US8865699B2, “Amino triazoles as PI3K inhibitors” (Cellzome Ltd., priority 2007, dated 2014).

The subject of series [1] is MRL-lpr mouse model of systemic lupus erythematosus (SLE). The note with it: intraperitoneal administration.
The test system of series [2] is lymphocyte-dependent rheumatoid arthritis induced by direct collagen II injection. The note with it: mouse, oral.
Series [3] has as its system collagen II-antibody-induced arthritis. The following applies: wildtype mice, oral.
In series [4] the test system is animal model of myocardial infarction. The following applies: dosing after myocardial reperfusion (up to 3 hours after).

SMILES strings stand for the structures.

As for `O=C1NC(=O)/C(=C\c2ccc3nccnc3c2)S1` [AS-605240], in series [1], the “CD4+ T-cell populations” value was “reduced CD4+ T-cell populations”, the glomerulonephritis result is “reduced glomerulonephritis” and the life span result is “prolonged life span”. The “joint inflammation and damage” value in series [2] is “decreased joint inflammation and damage”. In series [3], the “clinical and histologic signs of arthritis” value is “reduced clinical and histologic signs of collagen II-antibody-induced arthritis”.

Consider `Nc1nc(N)c2nc(-c3cccc(O)c3)c(-c3cccc(O)c3)nc2n1` [TG100-115], for which, in series [4], the “edema and inflammation in response to multiple mediators” value is “potently inhibits edema and inflammation”.
